The source of these data is patent US9273058B2 (BRISTOL-MYERS SQUIBB COMPANY, priority 2013, dated 2016).

Read-outs that look alike come from different tables or passages of the source.

One assay has as its target CK1ε (Homo sapiens, UniProt P49674). The experiment in a line: CK1ε kinase assay (Caliper LabChip electrophoretic separation of fluoresceinated peptide substrate and product). In kind it is biochemical. The following applies: 200 pM CK1ε, 50 μM ATP, 1.5 μM peptide, 22 hours at room temperature. The essentials: (§1)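 Kinase reactions ran 22 h at room temperature, were stopped with EDTA, and phosphorylated product was separated electrophoretically from unphosphorylated fluoresceinated peptide. Compounds were tested at eleven concentrations from 10 mM DMSO stocks. IC50 by non-linear regression.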

The next assay concerns the target CK1δ (Homo sapiens, UniProt P48730). The assay is described as follows: CK1δ kinase assay (Caliper LabChip electrophoretic separation of fluoresceinated peptide substrate and product). In kind it is biochemical. Conditions: 200 pM CK1δ, 50 μM ATP, 1.5 μM peptide, 22 hours at room temperature. The essentials:
as §1

CK1δ, sequence (P48730 whole entry): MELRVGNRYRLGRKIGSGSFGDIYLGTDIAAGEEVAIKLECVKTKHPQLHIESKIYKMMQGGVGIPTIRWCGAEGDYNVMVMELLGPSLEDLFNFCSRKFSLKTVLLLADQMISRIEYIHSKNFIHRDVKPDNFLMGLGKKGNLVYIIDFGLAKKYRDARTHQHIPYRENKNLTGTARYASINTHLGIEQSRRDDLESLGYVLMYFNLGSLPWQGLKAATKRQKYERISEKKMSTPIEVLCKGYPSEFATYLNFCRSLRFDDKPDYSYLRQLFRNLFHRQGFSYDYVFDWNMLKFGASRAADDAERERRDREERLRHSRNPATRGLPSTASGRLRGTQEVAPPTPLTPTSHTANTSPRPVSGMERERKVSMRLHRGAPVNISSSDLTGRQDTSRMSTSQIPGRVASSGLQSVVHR
CK1ε, sequence (P49674 whole entry): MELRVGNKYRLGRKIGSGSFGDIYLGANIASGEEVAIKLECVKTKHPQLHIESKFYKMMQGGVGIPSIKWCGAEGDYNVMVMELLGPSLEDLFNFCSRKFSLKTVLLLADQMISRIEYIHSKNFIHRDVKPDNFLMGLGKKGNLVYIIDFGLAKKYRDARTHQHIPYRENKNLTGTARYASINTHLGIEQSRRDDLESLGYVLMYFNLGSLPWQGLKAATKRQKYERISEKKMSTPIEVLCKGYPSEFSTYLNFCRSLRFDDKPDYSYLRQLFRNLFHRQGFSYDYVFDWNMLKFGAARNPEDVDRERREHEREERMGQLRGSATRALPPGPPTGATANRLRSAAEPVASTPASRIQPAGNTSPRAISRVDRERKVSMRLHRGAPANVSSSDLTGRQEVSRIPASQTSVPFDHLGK

On to `CC(C)(C)NC(=O)N1CCn2nc(-c3ccccc3F)c(C(N)=O)c2C1` [Compound 107, N^5-(tert-Butyl)-2-(2-fluorophenyl)-6,7-dihydropyrazolo[1,5-a] pyrazine-3,5(4H)-dicarboxamide], for which the IC50 at CK1ε (read-out: CK1ε) was 400 nM; on CK1ε (read-out: CK1ε IC50 range) it was 100 to 2000 nM; on CK1δ (read-out: CK1δ) it was 105 nM; at CK1δ (read-out: CK1δ IC50 range), 10 to 100 nM.

Regarding `CC(C)(C)NC(=O)N1CCn2nc(-c3cccc(Cl)c3)c(C(N)=O)c2C1` [Compound 108, N^5-(tert-Butyl)-2-(3-chlorophenyl)-6,7-dihydropyrazolo[1,5-a] pyrazine-3,5(4H)-dicarboxamide], the IC50 on CK1ε (read-out: CK1ε) is 2.4 nM; at CK1ε (read-out: CK1ε IC50 range), 0.01 to 10 nM; at CK1δ (read-out: CK1δ), 0.9 nM; at CK1δ (read-out: CK1δ IC50 range), 0.01 to 10 nM.

`CC(C)(C)NC(=O)N1CCn2nc(-c3cccc(C(F)(F)F)c3)c(C(N)=O)c2C1` [Compound 110, N^5-(tert-Butyl)-2-(3-(trifluoromethyl)phenyl)-6,7-dihydropyrazolo[1,5-a] pyrazine-3,5(4H)-dicarboxamide]: the IC50 at CK1ε (read-out: CK1ε) was 156 nM; on CK1ε (read-out: CK1ε IC50 range), 100 to 2000 nM; at CK1δ (read-out: CK1δ), 83.9 nM; at CK1δ (read-out: CK1δ IC50 range), 10 to 100 nM.

Turning to `CC(C)(C)NC(=O)N1CCn2nc(-c3cccnc3)c(C(N)=O)c2C1` [Compound 111, N^5-(tert-Butyl)-2-(pyridin-3-yl)-6,7-dihydropyrazolo[1,5-a]pyrazine-3,5(4H)-dicarboxamide], the IC50 on CK1ε (read-out: CK1ε IC50 range) and at CK1δ (read-out: CK1δ IC50 range) was 100 to 2000 nM each time.

For the molecule `CC(C)(C)NC(=O)N1CCn2nc(-c3ccnc(F)c3)c(C(N)=O)c2C1` [Compound 112, N^5-(tert-Butyl)-2-(2-fluoropyridin-4-yl)-6,7-dihydropyrazolo[1,5-a] pyrazine-3,5(4H)-dicarboxamide], the results for the IC50 at CK1ε (read-out: CK1ε IC50 range) and at CK1δ (read-out: CK1δ IC50 range) were 100 to 2000 nM and 10 to 100 nM, respectively.

Regarding `CC(C)(C)NC(=O)N1CCn2nc(-c3cccc(C#N)c3)c(C(N)=O)c2C1` [Compound 114, N^5-(tert-Butyl)-2-(3-cyanophenyl)-6,7-dihydropyrazolo[1,5-a] pyrazine-3,5(4H)-dicarboxamide], the IC50 on CK1ε (read-out: CK1ε) is 43 nM; at CK1ε (read-out: CK1ε IC50 range), 10 to 100 nM; on CK1δ (read-out: CK1δ), 12.5 nM; at CK1δ (read-out: CK1δ IC50 range), 10 to 100 nM.

On to `CC(C)(C)NC(=O)N1CCn2nc(-c3cc(F)cc(C#N)c3)c(C(N)=O)c2C1` [Compound 115, N^5-(tert-Butyl)-2-(3-cyano-5-fluorophenyl)-6,7-dihydropyrazolo[1,5-a] pyrazine-3,5(4H)-dicarboxamide], for which the IC50 was in the range of 100 to 2000 nM on CK1ε (read-out: CK1ε IC50 range) and 10 to 100 nM at CK1δ (read-out: CK1δ IC50 range).

As for `CC(C)(C)NC(=O)N1CCn2nc(-c3ccccc3)c(C(N)=O)c2C1` [Compound 116, N^5-(tert-Butyl)-2-phenyl-6,7-dihydropyrazolo[1,5-a] pyrazine-3,5(4H)-dicarboxamide], the IC50 at CK1ε (read-out: CK1ε) was 79.8 nM; on CK1ε (read-out: CK1ε IC50 range) it was 10 to 100 nM; at CK1δ (read-out: CK1δ), 18.2 nM; on CK1δ (read-out: CK1δ IC50 range) it was 10 to 100 nM.

With `CC(C)(C)NC(=O)N1CCn2nc(-c3cccc(NS(C)(=O)=O)c3)c(C(N)=O)c2C1` [Compound 118, N^5-(tert-Butyl)-2-(3-(methylsulfonamido)phenyl)-6,7-dihydropyrazolol[1,5-a] pyrazine-3,5(4H)-dicarboxamide], the IC50 on CK1ε (read-out: CK1ε IC50 range) and at CK1δ (read-out: CK1δ IC50 range) was 100 to 2000 nM each time.

As for `CC(C)(C)NC(=O)N1CCn2nc(-c3cccc(N)c3)c(C(N)=O)c2C1` [Compound 120, 2-(3-Aminophenyl)-N^5-(tert-butyl)-6,7-dihydropyrazolo [1,5-a]pyrazine-3,5(4H)-dicarboxamide], the IC50 on CK1ε (read-out: CK1ε IC50 range) fell in the range of 100 to 2000 nM; at CK1δ (read-out: CK1δ IC50 range), 10 to 100 nM.

As to `CC(C)(C)NC(=O)N1CCn2nc(-c3ccsc3)c(C(N)=O)c2C1` [Compound 121, N^5-(tert-Butyl)-2-(thiophen-3-yl)-6,7-dihydropyrazolo[1,5-a]pyrazine-3,5(4H)-dicarboxamide], the IC50 on CK1ε (read-out: CK1ε IC50 range) was in the range of 100 to 2000 nM; on CK1δ (read-out: CK1δ IC50 range), 10 to 100 nM.

For `CC(C)(C)NC(=O)N1CCn2nc(-c3cccc(C(=O)O)c3)c(C(N)=O)c2C1` [Compound 122, 3-(5-(tert-Butylcarbamoyl)-3-carbamoyl-4,5,6,7-tetrahydropyrazolo[1,5-a]pyrazin-2-yl)benzoic acid], the IC50 at CK1ε (read-out: CK1ε IC50 range) and at CK1δ (read-out: CK1δ IC50 range) was 100 to 2000 nM each time.

Take `CC(C)(C)NC(=O)N1CCn2nc(-c3cccc(C(N)=O)c3)c(C(N)=O)c2C1` [Compound 123, N^5-(tert-Butyl)-2-(3-carbamoylphenyl)-6,7-dihydropyrazolo[1,5-a] pyrazine-3,5(4H)-dicarboxamide]: the results for the IC50 at CK1ε (read-out: CK1ε IC50 range) and at CK1δ (read-out: CK1δ IC50 range) were 100 to 2000 nM and 10 to 100 nM, respectively.

Turning to `CC(C)(C)NC(=O)N1CCn2nc(-c3ccc(F)cc3F)c(C(N)=O)c2C1` [Compound 124, N^5-(tert-Butyl)-2-(2,4-difluorophenyl)-6,7-dihydropyrazolo[1,5-a] pyrazine-3,5(4H)-dicarboxamide], the IC50 on CK1ε (read-out: CK1ε) is 118 nM; on CK1δ (read-out: CK1δ) it was 172 nM.

On to `CC(C)(C)NC(=O)N1CCn2nc(-c3ccc(F)nc3F)c(C(N)=O)c2C1` [Compound 125, N^5-(tert-Butyl)-2-(2,6-difluoropyridin-3-yl)-6,7-dihydropyrazolo[1,5-a] pyrazine-3,5(4H)-dicarboxamide], for which the IC50 at CK1ε (read-out: CK1ε IC50 range) and on CK1δ (read-out: CK1δ IC50 range) was 100 to 2000 nM throughout.

In the case of `CC(C)(C)NC(=O)N1CCn2nc(-c3ccncc3)c(C(N)=O)c2C1` [Compound 126, N^5-(tert-Butyl)-2-(pyridin-4-yl)-6,7-dihydropyrazolo[1,5-a]pyrazine-3,5(4H)-dicarboxamide], the IC50 on CK1ε (read-out: CK1ε) is 844 nM; at CK1ε (read-out: CK1ε IC50 range) it was 100 to 2000 nM; at CK1δ (read-out: CK1δ) it was 442 nM; on CK1δ (read-out: CK1δ IC50 range), 100 to 2000 nM.

In the case of `CC(C)(C)NC(=O)N1CCn2nc(-c3ccc(C#N)cc3)c(C(N)=O)c2C1` [Compound 127, N^5-(tert-Butyl)-2-(4-cyanophenyl)-6,7-dihydropyrazolo[1,5-a] pyrazine-3,5(4H)-dicarboxamide], the IC50 at CK1ε (read-out: CK1ε) is 444 nM; on CK1ε (read-out: CK1ε IC50 range), 100 to 2000 nM; at CK1δ (read-out: CK1δ) it was 357 nM; on CK1δ (read-out: CK1δ IC50 range), 100 to 2000 nM.

On to `CC(C)(C)NC(=O)N1CCn2nc(-c3cccc(Cl)c3Cl)c(C(N)=O)c2C1` [Compound 130, N^5-(tert-Butyl)-2-(2,3-dichlorophenyl)-6,7-dihydropyrazolo[1,5-a] pyrazine-3,5(4H)-dicarboxamide], for which the IC50 at CK1ε (read-out: CK1ε) is 89.5 nM; at CK1ε (read-out: CK1ε IC50 range) it was 10 to 100 nM; at CK1δ (read-out: CK1δ) it was 96.4 nM; at CK1δ (read-out: CK1δ IC50 range) it was 10 to 100 nM.

Take `CC(C)(C)NC(=O)N1CCn2nc(-c3ccccc3C(N)=O)c(C(N)=O)c2C1` [Compound 131, N^5-(tert-Butyl)-2-(2-carbamoylphenyl)-6,7-dihydropyrazolo[1,5-a] pyrazine-3,5(4H)-dicarboxamide]: the IC50 at CK1ε (read-out: CK1ε IC50 range) and on CK1δ (read-out: CK1δ IC50 range) was 100 to 2000 nM in each case.

As for `CC(C)(C)NC(=O)N1CCn2nc(-c3cccc4ncccc34)c(C(N)=O)c2C1` [Compound 132, N^5-(tert-Butyl)-2-(quinolin-5-yl)-6,7-dihydropyrazolo[1,5-a]pyrazine-3,5(4H)-dicarboxamide], the IC50 at CK1ε (read-out: CK1ε IC50 range) and at CK1δ (read-out: CK1δ IC50 range) was 100 to 2000 nM in each case.

`CC(C)(C)NC(=O)N1CCn2nc(-c3cncc4ccccc34)c(C(N)=O)c2C1` [Compound 133, N^5-(tert-Butyl)-2-(isoquinolin-4-yl)-6,7-dihydropyrazolo[1,5-a] pyrazine-3,5(4H)-dicarboxamide]: the IC50 on CK1ε (read-out: CK1ε IC50 range) and on CK1δ (read-out: CK1δ IC50 range) was 100 to 2000 nM throughout.
